Assay results published in ChEMBL document CHEMBL4177663, “Discovery and structure-activity relationship study of 1,3,6-trisubstituted 1,4-diazepane-7-ones as novel human kallikrein 7 inhibitors” (Bioorg Med Chem Lett, 2017).

Key:
Trypsin = Trypsin (Homo sapiens, UniProt P07477+P07478+P35030); assay: Inhibition of human trypsin preincubated for 10 mins followed by Boc-Gln-Ala-Arg-MCA peptide substrate addition measured after 30 mins by fluorescence analysis; format: protein assay
[1] = Inhibition of human chymotrypsin preincubated for 10 mins followed by Suc-Ala-Ala-Pro-Phe-MCA peptide substrate addition measured after 30 mins by fluorescence analysis
Kallikrein-7 = Kallikrein-7 (Homo sapiens, UniProt P49862); assay: Inhibition of thermolysin activated recombinant human C-terminal 10-His tagged KLK7 preincubated for 10 mins followed by MOCAc-Arg-Pro-Lys-Pro-Val-Glu-Nva-Trp-Arg-Lys(Dnp)-NH2 peptide substrate addition measured after 30 mins by fluorescence analysis
Kallikrein-7, sequence (P49862 whole entry): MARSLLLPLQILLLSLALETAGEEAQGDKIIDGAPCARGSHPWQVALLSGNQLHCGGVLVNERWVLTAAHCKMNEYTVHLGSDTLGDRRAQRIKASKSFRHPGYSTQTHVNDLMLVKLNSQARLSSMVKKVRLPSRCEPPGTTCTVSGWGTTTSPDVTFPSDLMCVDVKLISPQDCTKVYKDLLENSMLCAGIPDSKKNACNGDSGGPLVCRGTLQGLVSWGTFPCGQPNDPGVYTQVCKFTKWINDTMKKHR

Kallikrein-5 = molecular target: T1, Kallikrein-5 (Homo sapiens, UniProt Q9Y337); assay: Inhibition of recombinant human C-terminal 10-His tagged KLK5 preincubated for 10 mins followed by Boc-Val-Pro-Arg-MCA peptide substrate addition measured after 30 mins by fluorescence analysis
T1 sequence (Q9Y337 whole entry): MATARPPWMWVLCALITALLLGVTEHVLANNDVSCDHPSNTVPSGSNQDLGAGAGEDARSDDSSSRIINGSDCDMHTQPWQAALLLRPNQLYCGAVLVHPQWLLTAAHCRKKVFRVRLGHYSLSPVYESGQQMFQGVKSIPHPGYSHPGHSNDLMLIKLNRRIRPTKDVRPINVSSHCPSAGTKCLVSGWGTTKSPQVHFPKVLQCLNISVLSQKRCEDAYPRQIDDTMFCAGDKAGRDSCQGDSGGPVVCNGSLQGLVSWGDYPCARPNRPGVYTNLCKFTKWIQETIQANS

| IC50 (Trypsin) | IC50 [1] | IC50 (Kallikrein-7) | IC50 (Kallikrein-5) | SMILES |
| --- | --- | --- | --- | --- |
| > 30 µM | 30 µM | 1.9 µM | > 30 µM | COc1ccc(Cl)cc1C[C@@H]1CN/C(=N\N(C)C)CN(CC(=O)Nc2cccc(C(=O)O)c2)C1=O.Cl |
|  |  | 5.8 µM |  | COc1ccc(Cl)cc1C[C@@H]1CN/C(=N\Oc2cc(F)cc(F)c2)CN(CC(=O)Nc2ccc(O)c(C(=O)O)c2)C1=O |
|  |  | > 30 µM |  | COc1ccc(Cl)cc1C[C@@H]1CN/C(=N\O)CN(CC(=O)Nc2cccc(C(=O)O)c2)C1=O |
|  |  | 4.5 µM |  | COc1ccc(Cl)cc1C[C@@H]1CN/C(=N\N(C)C)CN(CC(=O)Nc2ccccc2)C1=O |
|  |  | > 30 µM |  | COc1ccc(Cl)cc1C[C@@H]1CN/C(=N\N(C)C)CN(CC(=O)Nc2ccccc2C(=O)O)C1=O |
|  |  | 14 µM |  | CO/N=C1/CN(CC(=O)Nc2cccc(C(=O)O)c2)C(=O)[C@H](Cc2cc(Cl)ccc2OC)CN1 |
|  |  | > 30 µM |  | COc1ccc(Cl)cc1C[C@@H]1CN/C(=N\OCC(C)C)CN(CC(=O)Nc2cccc(C(=O)O)c2)C1=O |
|  |  | 5.4 µM |  | COc1ccc(Cl)cc1C[C@@H]1CN/C(=N\Oc2c(F)cccc2F)CN(CC(=O)Nc2cccc(C(=O)O)c2)C1=O |
|  |  | > 30 µM |  | COc1ccc(Cl)cc1C[C@@H]1CNC(=O)CN(CC(=O)Nc2ccc(O)c(C(=O)O)c2)C1=O |
|  |  | 16 µM |  | COc1ccc(Cl)cc1C[C@@H]1CN/C(=N\N(C)C)CN(CC(=O)Nc2ccccn2)C1=O |
|  |  | 9 µM |  | COc1ccc(Cl)cc1C[C@@H]1CN/C(=N\N(C)C)CN(CC(=O)Nc2cccnc2)C1=O |
|  |  | > 30 µM |  | COc1ccc(Cl)cc1C[C@H]1CN/C(=N\Oc2cc(F)cc(F)c2)CN(CC(=O)Nc2ccc(O)c(C(=O)O)c2)C1=O |
|  |  | 13 µM |  | CCO/N=C1/CN(CC(=O)Nc2cccc(C(=O)O)c2)C(=O)[C@H](Cc2cc(Cl)ccc2OC)CN1 |
|  |  | 30 µM |  | COc1ccc(Cl)cc1C[C@@H]1CN/C(=N\N(C)C)CN(CC(=O)Nc2ccc(C(=O)O)cc2)C1=O |
| > 30 µM | 24 µM | 0.82 µM | > 30 µM | COc1ccc(Cl)cc1C[C@@H]1CN/C(=N\N(C)C)CN(CC(=O)Nc2cccc(S(C)(=O)=O)c2)C1=O |
